# EPA's ToxValDB 9.5 (doi:10.2903/j.efsa.2007.110r)
# Assays:
# Canidae = settings: subchronic; duration: 90 days; oral; Dog Other; organ weight
# Pimephales promelas = settings: chronic/long-term; duration: 28 days; growth
# Daphnia magna = settings: chronic/long-term; duration: 21 days; reproduction
# Apis mellifera = settings: acute; duration: 48 hours; oral; unspecified; mortality
# Oncorhynchus mykiss = settings: acute; duration: 96 hours; mortality
# Colinus virginianus = settings: acute; oral; diet; mortality
compound,measurement,setting,value
N#Cc1c[nH]cc1-c1cccc2c1OC(F)(F)O2 [Fludioxonil],NOAEL,Canidae,58.5 mg/kg-day
same,NOEC,Pimephales promelas,0.039 mg/L
same,LC50,"Tagia sp.; acute, mortality",> 1000 mg/kg
same,NOEC,Tagia sp.; chronic/long-term,20 mg/kg
same,LD50,"Bird; acute, oral, unspecified, mortality",≥ 2000 mg/kg
same,NOEC,Bird; reproductive,11.1 mg/kg-day
same,NOEC,Daphnia magna,0.005 mg/L
same,LD50,"Rattus norvegicus; acute, oral, mortality",> 5000 mg/kg
same,NOAEL,"Rattus norvegicus; chronic, duration: 2 years, oral, diet, organ weight",37 mg/kg-day
same,NOAEL,"Rattus norvegicus; reproduction developmental, reproduction",212 mg/kg-day
same,LD50,Apis mellifera,> 100 µg/piece
same,LC50,Oncorhynchus mykiss,0.23 mg/L
same,LC50,Colinus virginianus,> 833 mg/kg-day
